# Like-named read-outs stand apart in the source and are kept apart here.
# Columns and labels:
# [1] = system: Enterococcus faecium (VanA VRE, ATCC BAA-2317); assay: Antimicrobial assay, MIC, VanA E. faecium; type: cell-based; settings: for MIC: Enterococcus faecium
# Procedure: (§1) Assays were carried out following the methods of Clinical and Laboratory Standards Institute; Methods for Dilution Antimicrobial Susceptibility Tests for Bacteria That Grow Aerobically; Approved Standard, […].; CLSI document M07-A8; Clinical and Laboratory Standards Institute: Wayne, Pa., 2009.
# (§2) This diluted bacterial stock solution was then inoculated into a well of a V-shaped 96-well glass coated microtiter plate, supplemented with serial diluted aliquots of the antibiotic solution DMSO (4 μL), to achieve a total assay volume of 0.1 mL. The plate was then incubated at 37° C. for 18 hours, after which minimal inhibitory concentrations (MICs) were determined by monitoring the cell growth (observed as a pellet) in the wells. The lowest concentration of antibiotic (in μg/mL) capable of eliminating the cell growth in the wells is reported as the MIC.
# [2] = system: vancomycin-sensitive Staphylococcus aureus (VSSA strain ATCC 25923); assay: Antimicrobial assay, MIC, vancomycin-sensitive S. aureus; type: cell-based; settings: for MIC: Staphylococcus aureus
# Procedure: as §1, §2
# [3] = system: vancomycin-resistant Enterococcus faecalis (VanA VRE, BM4166); assay: microbe, parasite or virus in culture; type: cell-based; settings: for MIC: Enterococcus faecalis, VRE
# Procedure: as §1, §2
# [4] = system: vancomycin-resistant Enterococcus faecalis (VanB VRE, strain ATCC 51299); assay: microbe, parasite or virus in culture; type: cell-based; settings: for MIC: Enterococcus faecalis
# Procedure: as §1, §2
# [5] = relative to D-Ala-D-Ala; cited from earlier work
# [6] = system: methicillin and oxacillin-resistant Staphylococcus aureus subsp. aureus (MRSA strain ATCC 43300); assay: Antimicrobial assay, MIC, MRSA; type: cell-based; settings: for MIC: Staphylococcus aureus
# Procedure: as §1, §2
# [7] = system: VanA VRE; assay: Antimicrobial assay, MIC for VanA VRE; type: cell-based, E. faecalis and E. faecium; settings: for MIC: Enterococcus, VRE, read-out: MIC against VanA VRE; for improvement in activity against VanA VRE on introduction of the (4-chlorobiphenyl)methyl group: relative to the analogue without CBP group
# Procedure: as §1, §2
# [8] = system: VSSA and MRSA; assay: Antimicrobial assay, MIC for VSSA and MRSA together; type: cell-based, S. aureus
# Procedure: as §1, §2
# [9] = system: vancomycin-sensitive strain of E. faecium; settings: Kahne et al., Chem. Rev. 2005; cited from earlier work
# [10] = system: vancomycin-resistant strain of E. faecium; settings: Kahne et al., Chem. Rev. 2005; cited from earlier work
# [11] = system: vancomycin-resistant strain of E. faecium; assay: MIC reported by Kahne et al., vancomycin-resistant E. faecium; type: cell-based; settings: Kahne data
# [12] = system: panel of Gram-positive bacteria (VSSA, MRSA, VanA and VanB VRE); assay: Antimicrobial assay, MIC across the bacterial panel; type: cell-based, S. aureus, E. faecalis, E. faecium
# Procedure: as §1, §2
# [13] = read-out: MIC, Van A E. faecium, serum concentration 10%
# [14] = read-out: MIC, Van A E. faecium, serum concentration 25%
# [15] = read-out: MIC, Van A E. faecium, serum concentration 100%
# [16] = read-out: MIC, Van A E. faecalis, serum concentration 10%
# [17] = read-out: MIC, Van A E. faecalis, serum concentration 25%
# [18] = read-out: MIC, Van A E. faecalis, serum concentration 100%
# [19] = read-out: MIC, VanA E. faecalis
# [20] = read-out: MIC, Van B E. faecalis, serum concentration 10%
# [21] = read-out: MIC, Van B E. faecalis, serum concentration 25%
# [22] = read-out: MIC, Van B E. faecalis, serum concentration 100%
# [23] = read-out: MIC, VanB E. faecalis
# [24] = read-out: MIC, MRSA S. aureus, serum concentration 10%
# [25] = read-out: MIC, MRSA S. aureus, serum concentration 25%
# [26] = read-out: MIC, MRSA S. aureus, serum concentration 100%
compound,measurement,setting,value
"CN[C@H](CC(C)C)C(=O)N[C@H]1C(=O)N[C@@H](CC(N)=O)C(=O)N[C@H]2C(=O)N[C@H]3C(=O)N[C@H](C(=O)N[C@H](C(=O)O)c4cc(O)cc(O)c4-c4cc3ccc4O)[C@H](O)c3ccc(c(Cl)c3)Oc3cc2cc(c3O[C@@H]2O[C@H](CO)[C@@H](O)[C@H](O)[C@H]2O[C@H]2C[C@](C)(N)[C@H](O)[C@H](C)O2)Oc2ccc(cc2Cl)[C@H]1O [Compound 1, vancomycin, reference compound]","MIC, VanA E. faecium",[1]; ATCC BAA-2317,250 µg/mL
same,"MIC, Van A E. faecium, serum concentration 10%","[1]; ATCC BAA-2317, 10%",250 µg/mL
same,"MIC, Van A E. faecium, serum concentration 25%","[1]; ATCC BAA-2317, 25%",250 µg/mL
same,"MIC, Van A E. faecium, serum concentration 100%","[1]; ATCC BAA-2317, 100%",500 µg/mL
same,"MIC, sensitive S. aureus",[2]; ATCC 25923,0.5 µg/mL
same,"MIC, sensitive S. aureus, serum concentration 10%","[2]; ATCC 25923, 10%",0.5 µg/mL
same,"MIC, sensitive S. aureus, serum concentration 25%","[2]; ATCC 25923, 25%",0.5 µg/mL
same,"MIC, sensitive S. aureus, serum concentration 100%","[2]; ATCC 25923, 100%",0.5 µg/mL
same,"MIC, VanA E. faecalis",[3]; BM 4166,250 µg/mL
same,"MIC, Van A E. faecalis, serum concentration 10%","[3]; BM 4166, 10%",250 µg/mL
same,"MIC, Van A E. faecalis, serum concentration 25%","[3]; BM 4166, 25%",250 µg/mL
same,"MIC, Van A E. faecalis, serum concentration 100%","[3]; BM 4166, 100%",500 µg/mL
same,"MIC, VanB E. faecalis",[4]; ATCC 51299,8 µg/mL
same,"MIC, Van B E. faecalis, serum concentration 10%","[4]; ATCC 51299, 10%",4 µg/mL
same,"MIC, Van B E. faecalis, serum concentration 25%","[4]; ATCC 51299, 25%",8 µg/mL
same,"MIC, Van B E. faecalis, serum concentration 100%","[4]; ATCC 51299, 100%",32 µg/mL
same,reduction of binding affinity for the altered ligand D-Ala-D-Lac,[5],1000 fold
same,"MIC, MRSA S. aureus",[6]; ATCC 43300,0.5 µg/mL
same,"MIC, MRSA S. aureus, serum concentration 10%","[6]; ATCC 43300, 10%",0.5 µg/mL
same,"MIC, MRSA S. aureus, serum concentration 25%","[6]; ATCC 43300, 25%",0.5 µg/mL
same,"MIC, MRSA S. aureus, serum concentration 100%","[6]; ATCC 43300, 100%",1 µg/mL
same,MIC against VanA VRE,[7]; stated for VanA VRE,250 µg/mL
same,MIC against VSSA and MRSA,[8]; one value stated for both strains,0.5 µg/mL
same,"MIC, vancomycin-sensitive strain of E. faecium",[9],1 µg/mL
"CN[C@H](CC(C)C)C(=O)N[C@H]1C(=O)N[C@@H](CC(N)=O)C(=O)N[C@H]2C(=O)NC3C(=O)N[C@H](C(=O)N[C@H](C(=O)O)c4cc(O)cc(O)c4-c4cc3ccc4O)[C@H](O)c3ccc(c(Cl)c3)Oc3cc2cc(c3OC2OC(CO)C(O)[C@H](O)[C@@H]2O[C@H]2CC(C)(NCc3ccc(-c4ccc(Cl)cc4)cc3)[C@H](O)[C@H](C)O2)Oc2ccc(cc2Cl)[C@H]1O (stereo partly drawn) [Compound 4, N-4-(4′-chlorobiphenyl)methyl vancomycin, reference compound]","MIC, vancomycin-resistant strain of E. faecium",[10],16 µg/mL
same,MIC,[1]; [13],2.5 µg/mL
same,MIC,[1]; [14],5 µg/mL
same,MIC,[1]; [15],5 µg/mL
same,MIC,"[1]; read-out: MIC, VanA E. faecium",2.5 µg/mL
same,MIC,"[2]; ATCC25923, read-out: MIC, sensitive S. aureus",0.03 µg/mL
same,MIC,"[2]; ATCC25923, read-out: MIC, sensitive S. aureus, serum concentration 10%",0.03 µg/mL
same,MIC,"[2]; ATCC25923, read-out: MIC, sensitive S. aureus, serum concentration 25%",0.03 µg/mL
same,MIC,"[2]; ATCC25923, read-out: MIC, sensitive S. aureus, serum concentration 100%",0.06 µg/mL
same,MIC,[3]; [16],2.5 µg/mL
same,MIC,[3]; [17],5 µg/mL
same,MIC,[3]; [18],10 µg/mL
same,MIC,[3]; [19],2.5 µg/mL
same,MIC,[4]; [20],0.03 µg/mL
same,MIC,[4]; [21],0.06 µg/mL
same,MIC,[4]; [22],0.06 µg/mL
same,MIC,[4]; [23],0.03 µg/mL
same,resistant strain less sensitive than the sensitive strain,[11],about 500 times
same,MIC,"[6]; read-out: MIC, MRSA S. aureus",0.03 µg/mL
same,MIC,[6]; [24],0.03 µg/mL
same,MIC,[6]; [25],0.06 µg/mL
same,MIC,[6]; [26],0.06 µg/mL
same,MIC,[7],2.5 µg/mL
same,improvement in activity against VanA VRE on introduction of the (4-chlorobiphenyl)methyl group,[7],100 fold
same,improvement in activity against VSSA and MRSA on introduction of the (4-chlorobiphenyl)methyl group,[8]; Compound 4 vs Compound 1,20 fold
same,MIC,"[8]; Staphylococcus aureus, MRSA, read-out: MIC against VSSA and MRSA",0.03 µg/mL
same,"MIC, vancomycin-sensitive strain of E. faecium",[9],0.03 µg/mL
"CN[C@H](CC(C)C)C(=O)N[C@H]1C(=O)N[C@@H](CC(N)=O)C(=O)N[C@H]2C(=N)NC3C(=O)N[C@H](C(=O)N[C@H](C(=O)O)c4cc(O)cc(O)c4-c4cc3ccc4O)[C@H](O)c3ccc(c(Cl)c3)Oc3cc2cc(c3OC2OC(CO)C(O)[C@H](O)[C@@H]2O[C@H]2CC(C)(NCc3ccc(-c4ccc(Cl)cc4)cc3)[C@H](O)[C@H](C)O2)Oc2ccc(cc2Cl)[C@H]1O (stereo partly drawn) [Compound 6, N-4-(4′-chlorobiphenyl)methyl [Ψ[C(═NH)NH]Tpg^4]-vancomycin]",MIC,[1]; [13],0.005 µg/mL
same,MIC,[1]; [14],0.06 µg/mL
same,MIC,[1]; [15],0.5 µg/mL
same,MIC,"[1]; read-out: MIC, VanA E. faecium",0.005 µg/mL
same,MIC,"[2]; ATCC25923, read-out: MIC, sensitive S. aureus, serum concentration 10%, ATCC 25923, 10%",0.03 µg/mL
same,MIC,"[2]; ATCC25923, read-out: MIC, sensitive S. aureus, serum concentration 100%, ATCC 25923, 100%",1 µg/mL
same,MIC,"[2]; ATCC25923, ATCC 25923, 25%, read-out: MIC, sensitive S. aureus, serum concentration 25%",0.12 µg/mL
same,MIC,"[2]; ATCC25923, ATCC 25923, read-out: MIC, sensitive S. aureus",0.03 µg/mL
same,MIC,[3]; [16],0.005 µg/mL
same,MIC,[3]; [17],0.06 µg/mL
same,MIC,[3]; [18],0.5 µg/mL
same,MIC,[3]; [19],0.005 µg/mL
same,MIC,[4]; [20],0.06 µg/mL
same,MIC,[4]; [21],0.12 µg/mL
same,MIC,[4]; [22],1 µg/mL
same,MIC,[4]; [23],0.06 µg/mL
same,MIC,"[6]; read-out: MIC, MRSA S. aureus",0.06 µg/mL
same,MIC,[6]; [24],0.06 µg/mL
same,MIC,[6]; [25],0.24 µg/mL
same,MIC,[6]; [26],1 µg/mL
same,"potency relative to Compound 17, on average across the panel",[12],15 fold
same,increase in activity against VanA VRE relative to vancomycin (Compound 1),[7],"50,000 fold"
same,MIC,[7],0.005 µg/mL
same,improvement in activity against VanA VRE on introduction of the (4-chlorobiphenyl)methyl group,[7],100 fold
